# Values quoted from earlier work, collected in patent publication US4318905A, “Nonapeptide and decapeptide agonists of luteinizing hormone releasing hormone containing heterocyclic amino acid residues” (Syntex (U.S.A.) Inc., priority 1980, dated 1982).
# Details: Gly in the 6-position replaced by a D-amino acid
row,Substance,activity relative to LH-RH
1,[D-Ala^6 ]LHRH,increased activity
2,[D-Trp^6 ]LHRH,increased activity
3,[D-Phe^6 ]LHRH,increased activity
